# Reference: patent US8975400B2, “2,3-dihydroimidazo[1, 2-c] pyrimidin-5(1 H)-one compounds use as LP-PLA2 inhibitors” (Glaxo Group Limited, priority 2011, dated 2015)
# How the values were obtained:
# [1] = system: splenic macrophages and CNS infiltrating macrophages (M1/M2 markers); assay: Ex vivo analysis of M1 and M2 markers in macrophages of EAE rats by realtime PCR; design: species or system rat; conditions: splenic macrophages harvested day 13 post MBP-immunization
# Description: Ex vivo analysis of proinflammatory (M1) and anti-inflammatory (M2) markers in control and compound treated EAE rats. Splenic macrophages were harvested at day 13 post MBP-immunization and assayed for expression of a variety of markers by realtime PCR. CNS infiltrating cells were harvested and macrophages were analyzed for expression of M1 and M2 markers by realtime PCR.
# [2] = system: experimental autoimmune encephalomyelitis (EAE) induced by myelin basic protein (MBP); assay: Rat experimental autoimmune encephalomyelitis (EAE) model, preventive treatment; format: in vivo
# Description: A further study was carried out to study the impact of Lp-PLA2 inhibitors on modulating M1/M2 imbalance. In this study, rats were induced to develop experimental autoimmune encephalomyelitis (EAE) by immunization with myelin basic protein (MBP) antigen and treated with a known Lp-PLA2 inhibitor: 5-((9-Methoxy-4-oxo-6,7-dihydro-4H-pyrimido[6,1-a]isoquinolin-2-yl)oxy)-2-(3-(trifluoromethyl)phenoxy)benzonitrile (See PCT application no. PCT/CN2011/001597). In this preventive treatment model, the compound was administered at day 0 (day of immunization) and continued to administer until day 22. The study lasted for 25 days. Rats were subsequently monitored for symptoms of EAE. Rats were immunized with MBP to develop EAE and symptoms were monitored daily. Plasma Lp-PLA2 activity, OxLDL, and LysoPC concentration were determined at different time points through the course of EAE.
smiles,measurement,setting,value
"COc1ccc2c(c1)CCn1c-2cc(Oc2ccc(Oc3cccc(C(F)(F)F)c3)c(C#N)c2)nc1=O [5-((9-Methoxy-4-oxo-6,7-dihydro-4H-pyrimido[6,1-a]isoquinolin-2-yl)oxy)-2-(3-(trifluoromethyl)phenoxy)benzonitrile]",M1 (proinflammatory) markers expression,[1],decrease in M1 markers
same,M2 (anti-inflammatory) markers expression,[1],increase in M2 markers
same,LysoPC levels,[2]; rat EAE plasma,decreased
same,plasma Lp-PLA2 activity,[2]; rat EAE plasma,decreased
same,clinical disease (EAE),"[2]; rat EAE, compound administered day 0 until day 22, study 25 days",reduction in clinical disease
